PubChem BioAssay (NCI)
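Five compound concentrations were applied to cells in 96-well plates for 48 hours; endpoints were derived by simple linear interpolation of the resulting dose-response curve. At the GI50, growth is halved. Definition used: TGI = concentration required for complete inhibition of growth.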

Tests used:
Experiment in all cases: NCI-60 cell line screen, 48 h
[1] = test system: A498 renal
[2] = test system: MDA-MB-231 breast
[3] = test system: SN12C renal
[4] = test system: KM12 colon
[5] = test system: HCT-116 colon
[6] = test system: ACHN renal
[7] = test system: MALME-3M melanoma
[8] = test system: HOP-62 NSCLC
[9] = test system: UACC-62 melanoma
[10] = test system: 786-0 renal
[11] = test system: HCT-15 colon
[12] = test system: MCF7 breast
[13] = test system: SK-MEL-2 melanoma
[14] = test system: NCI-H23 lung
[15] = test system: RXF 393 renal
[16] = test system: TK-10 renal
[17] = test system: SNB-75 CNS
[18] = test system: OVCAR-8 ovarian
[19] = test system: OVCAR-4 ovarian
[20] = test system: DU-145 prostate
[21] = test system: HCC-2998 colon
[22] = test system: HS 578T breast
[23] = test system: SK-MEL-5 melanoma
[24] = test system: CAKI-1 renal
[25] = test system: SK-MEL-28 melanoma
[26] = test system: SW-620 colon
[27] = test system: M14 melanoma
[28] = test system: PC-3 prostate
[29] = test system: BT-549 breast
[30] = test system: RPMI-8226 leukemia
[31] = test system: MDA-MB-435
[32] = test system: EKVX NSCLC
[33] = test system: SF-295 CNS
[34] = test system: SF-539 CNS
[35] = test system: COLO 205 colon
[36] = test system: CCRF-CEM leukemia
[37] = test system: U251 CNS
[38] = test system: SK-OV-3 ovarian
[39] = test system: UO-31 renal
[40] = test system: OVCAR-3 ovarian
[41] = test system: NCI-H522 lung
[42] = test system: K-562 leukemia
[43] = test system: LOX IMVI melanoma
[44] = test system: HT29 colon
[45] = test system: IGROV1 ovarian
[46] = test system: UACC-257 melanoma
[47] = test system: OVCAR-5 ovarian
[48] = test system: NCI-H460 lung
[49] = test system: SNB-19 CNS
[50] = test system: T-47D breast
[51] = test system: SF-268 CNS
[52] = test system: A549 NSCLC
[53] = test system: NCI-H226 lung
[54] = test system: HL-60(TB) leukemia
[55] = test system: HOP-92 NSCLC
[56] = test system: NCI/ADR-RES ovarian
[57] = test system: MOLT-4 leukemia

NC(=O)c1[nH]cnc1/N=N/SCC(N)C(=O)O (stereo not given) was tested, and the TGI [1] was > 100 µM, the TGI [2] was > 54.9 µM and the TGI [3] was > 58 µM. The TGI [4] was > 62.5 µM, the TGI [5] was > 100 µM and the TGI [6] was > 100 µM. The TGI [7] was > 100 µM, the TGI [8] was > 100 µM and the TGI [9] was > 100 µM. For the same molecule, the TGI [10] was > 100 µM, the TGI [11] was > 100 µM and the TGI [12] was > 100 µM. For the same molecule, the TGI [13] was > 100 µM, the TGI [14] was > 100 µM and the TGI [15] was > 100 µM. For the same molecule, the TGI [16] was > 100 µM, the TGI [17] was > 100 µM and the TGI [18] was > 100 µM. For the same molecule, the TGI [19] was > 100 µM, the TGI [20] was > 100 µM and the TGI [21] was > 30.6 µM. The TGI [22] was > 100 µM, the TGI [23] was > 100 µM and the TGI [24] was > 100 µM. For the same molecule, the TGI [25] was > 100 µM, the TGI [26] was > 100 µM and the TGI [27] was > 100 µM. The TGI [28] was > 100 µM, the TGI [29] was > 100 µM and the TGI [30] was > 100 µM. For the same molecule, the TGI [31] was > 100 µM, the TGI [32] was > 100 µM and the TGI [33] was > 75.1 µM. The TGI [34] was > 100 µM, the TGI [35] was > 100 µM and the TGI [36] was > 100 µM. For the same molecule, the TGI [37] was > 100 µM, the TGI [38] was > 100 µM and the TGI [39] was > 93.9 µM. The TGI [40] was > 100 µM, the TGI [41] was > 100 µM and the TGI [42] was > 100 µM. For the same molecule, the TGI [43] was > 100 µM, the TGI [44] was > 100 µM and the TGI [45] was > 100 µM. For the same molecule, the TGI [46] was > 100 µM, the TGI [47] was > 100 µM and the TGI [48] was > 100 µM. For the same molecule, the TGI [49] was > 100 µM, the TGI [50] was > 100 µM and the TGI [51] was > 100 µM. The TGI [52] was > 100 µM, the TGI [53] was > 100 µM and the TGI [54] was 6.66 µM. The TGI [55] was > 100 µM and the TGI [56] was > 100 µM.
For CCCCC#CC#Cc1cccc(=O)o1, the GI50 [2] was 19.5 µM, the TGI [2] was 43.2 µM and the GI50 [3] was 15.1 µM. It also gave a TGI [3] of 38.8 µM, a GI50 [4] of 13.5 µM and a TGI [4] of 27.4 µM. The GI50 [5] was 14.8 µM, the TGI [5] was 28.3 µM and the GI50 [6] was 14.6 µM. The TGI [6] was 28.7 µM, the GI50 [7] was 14.1 µM and the TGI [7] was 27.6 µM. For the same molecule, the GI50 [8] was 18.1 µM, the TGI [8] was 34.4 µM and the GI50 [9] was 16.1 µM. It also gave a TGI [9] of 32.8 µM, a GI50 [10] of 16.6 µM and a TGI [10] of 34.6 µM. It also gave a GI50 [11] of 20.2 µM, a TGI [11] of 39.5 µM and a GI50 [12] of 26.1 µM. For the same molecule, the TGI [12] was > 100 µM, the GI50 [13] was 38.6 µM and the TGI [13] was 69.3 µM. It also gave a GI50 [14] of 18.4 µM, a TGI [14] of 36.2 µM and a GI50 [15] of 32.9 µM. The TGI [15] was > 100 µM, the GI50 [16] was 14.3 µM and the TGI [16] was 28.3 µM. For the same molecule, the GI50 [18] was 26.4 µM, the TGI [18] was 62.9 µM and the GI50 [19] was 16.4 µM. It also gave a TGI [19] of 37.6 µM, a GI50 [20] of 21.9 µM and a TGI [20] of 50.8 µM. It also gave a GI50 [22] of 25.9 µM, a TGI [22] of 51.6 µM and a GI50 [24] of 22.5 µM. It also gave a TGI [24] of 60 µM, a GI50 [25] of 14.4 µM and a TGI [25] of 29 µM. It also gave a GI50 [26] of 18.7 µM, a TGI [26] of 53.1 µM and a GI50 [57] of 4.77 µM. The TGI [57] was 32.1 µM, the GI50 [27] was 21.7 µM and the TGI [27] was 40.6 µM. The GI50 [28] was 31 µM, the TGI [28] was > 100 µM and the GI50 [29] was 20.3 µM. It also gave a TGI [29] of 46.9 µM, a GI50 [30] of 10.5 µM and a TGI [30] of 90.8 µM. For the same molecule, the GI50 [31] was 22 µM, the TGI [31] was 48.6 µM and the GI50 [32] was 49 µM. For the same molecule, the TGI [32] was > 100 µM, the GI50 [33] was 18.8 µM and the TGI [33] was 40 µM. It also gave a GI50 [34] of 24.6 µM, a TGI [34] of 51.6 µM and a GI50 [35] of 17.7 µM. The TGI [35] was 35 µM, the GI50 [36] was 15.4 µM and the TGI [36] was > 100 µM. For the same molecule, the GI50 [37] was 24.6 µM, the TGI [37] was 72.7 µM and the GI50 [38] was 27.3 µM. The TGI [38] was 46.7 µM, the GI50 [39] was 21.9 µM and the TGI [39] was 46.2 µM. It also gave a GI50 [40] of 23.9 µM, a TGI [40] of 69.6 µM and a GI50 [41] of 23.2 µM. It also gave a TGI [41] of 52.1 µM, a GI50 [43] of 16.2 µM and a TGI [43] of 32.3 µM. The GI50 [44] was 13.5 µM, the TGI [44] was 36.1 µM and the GI50 [45] was 30.7 µM. It also gave a TGI [45] of 75.8 µM, a GI50 [46] of 22.1 µM and a TGI [46] of 46.7 µM. The GI50 [47] was 22.3 µM, the TGI [47] was 46.6 µM and the GI50 [48] was 20.9 µM. For the same molecule, the TGI [48] was > 100 µM, the GI50 [49] was 12.6 µM and the TGI [49] was 27.7 µM. For the same molecule, the GI50 [50] was 8.34 µM, the TGI [50] was 25.7 µM and the GI50 [51] was 41.4 µM. The TGI [51] was > 100 µM, the GI50 [52] was 39.2 µM and the TGI [52] was > 100 µM. It also gave a GI50 [53] of 16.3 µM, a TGI [53] of 38.3 µM and a GI50 [54] of 15.6 µM. The TGI [54] was 43.1 µM, the GI50 [55] was 33.2 µM and the TGI [55] was > 100 µM. It also gave a GI50 [56] of 17.2 µM and a TGI [56] of 37.4 µM.
